Test results published in paper PMC8459971, “Evaluation of the hepatotoxicity of the novel GPR40 (FFAR1) agonist CPL207280 in the rat and monkey” (PLoS ONE, 2021).
Where “and” joins values, the source holds several entries; their conditions need not be identical. Equal entries are not always repeated.

Tests used:
[1] = Stability in microsomes, mouse; assay type: in vitro ADME; conditions: for average DEG [%]: mouse microsomes, with cofactors
Procedure: (§1) The final incubation volume was 500 μL. Two control compounds (verapamil and donepezil) were included for each microsomal species, along with the appropriate vehicle control. The reactions were terminated by transferring 50 μL of incubate to 100 μL methanol containing an internal standard (metoprolol) at appropriate time points (0, 10, 20, 40, 60, and 120 min for the test compound and 0, 5, 10, 20, 40, and 60 min for the control compounds). The termination plates were centrifuged at 4000 x g at 4°C for 30 min to precipitate the protein. The supernatants were then collected for analysis, and LC-MS/MS was used for detection purposes. The system consisted of an Acquity™ Binary Solvent Manager, Acquity™ 4-position heated column manager, 2777 Ultra High Pressure Autosampler, and a Xevo-TQ MS triple quadrupole mass spectrometer (Waters Ltd., Herts, UK). This process was carried out twice.

[2] = target: OATP1A2 (Homo sapiens, UniProt P46721); assay: Uptake transporter inhibition assay, OATP1A2; conditions: for Accumulation (counts per minute; CPM) HEK293FT-MOCK / Accumulation (counts per minute; CPM) HEK293FT-OATP1A2: OATP1A2;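 also: cellular uptake of a radiolabeled probe substrate in HBSS pH 7.4 at 37 °C with test compound or solvent, measured by liquid scintillation counting of cell lysates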
Procedure: (§3) For the uptake transporter inhibition assay, cells were washed twice with 100 μL of the appropriate buffer (HK, pH 7.4) for OATP1B1, followed by HBSS (pH 7.4) for (NTCP, OAT1, OAT2v1, OATP1A2, and OATP1B3). Uptake experiments were carried out at 37 ± 1°C in 50 μL of the respective buffer containing the probe substrate and the compound or solvent. […] After the experiment, cells were washed twice with 100 μL of cold appropriate buffer and lysed with 50 μL of 0.1 M NaOH. Radiolabeled probe substrate transport was determined by measuring an aliquot (35 μL) from each well for liquid scintillation counting.

[3] = Stability in microsomes, dog; assay type: in vitro ADME; conditions: for average DEG [%]: dog microsomes, with cofactors
Procedure: as §1

[4] = Viability assay, human primary hepatocytes, RT-glo, 48 h; assay type: cell-based; conditions: human, primary human hepatocytes, sheet Fig1 panel C (primary human hepatocytes), 48 h, replicates, read-out: viability, normalized to DMSO-treated controls
Procedure: (§2) To study the viability of the liver cells, 5 × 10^3 HepG2 (ATCC®) or human primary cells (ThermoFisher Scientific, USA) were seeded in 100 μL of DMEM media (Gibco; Thermo Fisher Scientific, USA) supplemented with fetal bovine serum (FBS)- in a 96-well plate. […] The experiments were performed in triplicates.

[5] = system: human primary hepatocytes; assay: as above; assay type: cell-based; conditions: 48 h
Procedure: as §2

[6] = target: T1, OAT1 (Homo sapiens, UniProt Q4U2R8); assay: Uptake transporter inhibition assay, OAT1; conditions: for Accumulation (counts per minute; CPM) HEK293FT-MOCK / Accumulation (counts per minute; CPM) HEK293FT-OAT1: OAT1;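 also: HEK293FT cells expressing OAT1 or mock, uptake of radiolabeled probe substrate at 37 °C in HBSS pH 7.4 with test compound or solvent, cell lysate read by liquid scintillation counting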
T1 sequence (Q4U2R8 1-563): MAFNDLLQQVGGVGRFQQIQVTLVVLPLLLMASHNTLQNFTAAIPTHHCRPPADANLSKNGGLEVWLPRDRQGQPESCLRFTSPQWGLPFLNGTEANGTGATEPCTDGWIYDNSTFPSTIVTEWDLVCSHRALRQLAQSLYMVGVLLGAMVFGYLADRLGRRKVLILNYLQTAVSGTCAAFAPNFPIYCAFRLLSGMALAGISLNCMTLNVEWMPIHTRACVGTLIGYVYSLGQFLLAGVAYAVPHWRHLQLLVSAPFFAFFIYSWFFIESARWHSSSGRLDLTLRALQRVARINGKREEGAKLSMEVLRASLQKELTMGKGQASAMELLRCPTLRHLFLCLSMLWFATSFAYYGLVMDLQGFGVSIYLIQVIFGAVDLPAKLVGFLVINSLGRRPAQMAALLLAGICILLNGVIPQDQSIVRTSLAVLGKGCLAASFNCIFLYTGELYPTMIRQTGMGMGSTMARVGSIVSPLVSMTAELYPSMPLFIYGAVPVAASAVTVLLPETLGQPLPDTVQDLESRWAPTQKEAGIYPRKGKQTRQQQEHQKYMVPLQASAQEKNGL
Procedure: as §3

[7] = system: HepG2 cells; assay: Respiration in hepatocytes (Seahorse XF Mito stress test); assay type: cell-based, human
[8] = Stability in microsomes, mini pig; assay type: in vitro ADME; conditions: for average DEG [%]: minipig microsomes, with cofactors
Procedure: as §1

[9] = Mouse (CD) microsomes, mean n = 2
[10] = Dog (Beagle) microsomes, mean n = 2
[11] = Mini pig microsomes, mean n = 2

Sequence of OATP1A2 (P46721 whole entry): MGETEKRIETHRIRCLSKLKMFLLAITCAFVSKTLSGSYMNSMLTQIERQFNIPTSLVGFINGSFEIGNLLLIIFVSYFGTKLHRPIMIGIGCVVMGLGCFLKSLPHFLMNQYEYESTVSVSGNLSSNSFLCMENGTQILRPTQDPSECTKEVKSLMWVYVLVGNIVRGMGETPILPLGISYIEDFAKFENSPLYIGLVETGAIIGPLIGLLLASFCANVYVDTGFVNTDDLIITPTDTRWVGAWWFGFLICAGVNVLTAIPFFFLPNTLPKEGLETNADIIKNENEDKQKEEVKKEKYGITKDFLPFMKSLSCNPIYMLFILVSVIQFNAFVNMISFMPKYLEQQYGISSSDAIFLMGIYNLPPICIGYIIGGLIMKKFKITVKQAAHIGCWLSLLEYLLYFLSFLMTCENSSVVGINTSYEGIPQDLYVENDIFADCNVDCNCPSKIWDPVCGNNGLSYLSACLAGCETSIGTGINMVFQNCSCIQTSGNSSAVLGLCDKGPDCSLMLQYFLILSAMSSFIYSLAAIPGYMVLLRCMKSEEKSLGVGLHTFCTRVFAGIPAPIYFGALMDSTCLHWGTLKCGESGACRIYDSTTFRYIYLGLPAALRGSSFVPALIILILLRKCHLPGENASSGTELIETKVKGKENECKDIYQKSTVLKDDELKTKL

Cc1cc(OCCCS(C)(=O)=O)cc(C)c1-c1cccc(COc2ccc3c(c2)OC[C@H]3CC(=O)O)c1 [TAK-875, fasiglifam, reference compound]
half-life at 3 μM [1, 9]: 5.72 h | microsomal CLint at 3 μM [1, 9]: 4 µL/min/mg | average DEG [%] ([1]; 0 min): 100.0% | average DEG [%] ([1]; 20 min): 83.6% | average DEG [%] ([1]; 40 min): 92.9% | average DEG [%] ([1]; 60 min): 79.0% | IC50 [2]: 10.6 µM | Accumulation (counts per minute; CPM) HEK293FT-MOCK ([2]; conc 0.10 µM): 142 CPM and 152 CPM | Accumulation (counts per minute; CPM) HEK293FT-OATP1A2 ([2]; conc 0.10 µM): 10423 CPM and 10027 CPM | Accumulation (counts per minute; CPM) HEK293FT-MOCK ([2]; conc 0.30 µM): 182 CPM and 209 CPM | Accumulation (counts per minute; CPM) HEK293FT-OATP1A2 ([2]; conc 0.30 µM): 8846 CPM and 9642 CPM | Accumulation (counts per minute; CPM) HEK293FT-MOCK ([2]; conc 1.00 µM): 191 CPM and 201 CPM | Accumulation (counts per minute; CPM) HEK293FT-OATP1A2 ([2]; conc 1.00 µM): 7776 CPM and 7509 CPM | Accumulation (counts per minute; CPM) HEK293FT-MOCK ([2]; conc 3.00 µM): 170 CPM and 194 CPM | Accumulation (counts per minute; CPM) HEK293FT-OATP1A2 ([2]; conc 3.00 µM): 6621 CPM and 5348 CPM | Accumulation (counts per minute; CPM) HEK293FT-MOCK ([2]; conc 10.00 µM): 165 CPM and 156 CPM | Accumulation (counts per minute; CPM) HEK293FT-OATP1A2 ([2]; conc 10.00 µM): 5408 CPM and 5698 CPM | Accumulation (counts per minute; CPM) HEK293FT-MOCK ([2]; conc 30.00 µM): 149 CPM and 181 CPM | Accumulation (counts per minute; CPM) HEK293FT-OATP1A2 ([2]; conc 30.00 µM): 4731 CPM and 4729 CPM | Accumulation (counts per minute; CPM) HEK293FT-MOCK ([2]; conc 100.00 µM): 205 CPM and 204 CPM | Accumulation (counts per minute; CPM) HEK293FT-OATP1A2 ([2]; conc 100.00 µM): 2008 CPM and 2199 CPM | half-life at 3 μM [3, 10]: 1.87 h | microsomal CLint at 3 μM [3, 10]: 12.4 µL/min/mg | average DEG [%] ([3]; 0 min): 100.0% | average DEG [%] ([3]; 20 min): 82.2% | average DEG [%] ([3]; 40 min): 77.1% | average DEG [%] ([3]; 60 min): 67.7% | viability at 48 h, 0.78 µM ([4]; 0.78 uM): 117% | viability at 48 h, 3.125 µM ([4]; 3.125 uM): 113% | viability at 48 h, 6.25 µM ([4]; 6.25 uM): 89.7% | viability at 48 h, 25 µM ([4]; 25 uM): 64.7% | viability at 48 h, 50 µM ([4]; 50 uM): 34.1% | viability at 48 h, 100 µM ([4]; 100 uM): 4.16% | viability ([5]; human primary hepatocytes, concentrations up to 10 μM): Neither compound exhibited altered viability | effect on growth ([5]; primary cells, 100 μM): abolished the growth | IC50 [6]: 34.8 µM | Accumulation (counts per minute; CPM) HEK293FT-MOCK ([6]; conc 0.10 µM): 34 CPM and 47 CPM | Accumulation (counts per minute; CPM) HEK293FT-OAT1 ([6]; conc 0.10 µM): 3883 CPM and 3843 CPM | Accumulation (counts per minute; CPM) HEK293FT-MOCK ([6]; conc 0.30 µM): 36 CPM and 29 CPM | Accumulation (counts per minute; CPM) HEK293FT-OAT1 ([6]; conc 0.30 µM): 3654 CPM and 3608 CPM | Accumulation (counts per minute; CPM) HEK293FT-MOCK ([6]; conc 1.00 µM): 32 CPM and 37 CPM | Accumulation (counts per minute; CPM) HEK293FT-OAT1 ([6]; conc 1.00 µM): 3568 CPM and 3527 CPM | Accumulation (counts per minute; CPM) HEK293FT-MOCK ([6]; conc 3.00 µM): 36 CPM and 37 CPM | Accumulation (counts per minute; CPM) HEK293FT-OAT1 ([6]; conc 3.00 µM): 3226 CPM and 3417 CPM | Accumulation (counts per minute; CPM) HEK293FT-MOCK ([6]; conc 10.00 µM): 34 CPM and 39 CPM | Accumulation (counts per minute; CPM) HEK293FT-OAT1 ([6]; conc 10.00 µM): 3074 CPM and 3122 CPM | Accumulation (counts per minute; CPM) HEK293FT-MOCK ([6]; conc 30.00 µM): 36 CPM and 39 CPM | Accumulation (counts per minute; CPM) HEK293FT-OAT1 ([6]; conc 30.00 µM): 1739 CPM and 1807 CPM | Accumulation (counts per minute; CPM) HEK293FT-MOCK ([6]; conc 100.00 µM): 33 CPM and 31 CPM | Accumulation (counts per minute; CPM) HEK293FT-OAT1 ([6]; conc 100.00 µM): 496 CPM and 493 CPM | oxygen consumption rate, mito stress tracing ([7]; Fig2 B, HepG2, 0,3 uM, 61.3509 min): 201.605 | ECAR (Extracellular Acidification Rate) ([7]; HepG2, 30 uM, replicates): 1.734 | effect on maximal respiratory capacity after FCCP ([7]; HepG2, Seahorse XF): dose-dependent reduction in maximal respiratory capacity | EC50 ([7]; Homo sapiens, HepG2, Seahorse XF, read-out: EC50 of acidification of media (ECAR)): 46 µM | half-life at 3 μM [8, 11]: 0.25 h | microsomal CLint at 3 μM [8, 11]: 91.1 µL/min/mg | average DEG [%] ([8]; 0 min): 100.0% | average DEG [%] ([8]; 20 min): 29.4% | average DEG [%] ([8]; 40 min): 13.1% | average DEG [%] ([8]; 60 min): 5.83%
